Legend:
[1] = target: T1, human TLR7 (Homo sapiens, UniProt Q9NYK1); assay: HEK-Blue hTLR7 SEAP reporter gene agonist assay; type: cell-based; conditions: HEK-Blue hTLR7 cells, 16 to 22 hours incubation
T1 construct: host or cells: HEK-Blue hTLR7 (HEK293-derived reporter cells)
T1 sequence (Q9NYK1 27-1049): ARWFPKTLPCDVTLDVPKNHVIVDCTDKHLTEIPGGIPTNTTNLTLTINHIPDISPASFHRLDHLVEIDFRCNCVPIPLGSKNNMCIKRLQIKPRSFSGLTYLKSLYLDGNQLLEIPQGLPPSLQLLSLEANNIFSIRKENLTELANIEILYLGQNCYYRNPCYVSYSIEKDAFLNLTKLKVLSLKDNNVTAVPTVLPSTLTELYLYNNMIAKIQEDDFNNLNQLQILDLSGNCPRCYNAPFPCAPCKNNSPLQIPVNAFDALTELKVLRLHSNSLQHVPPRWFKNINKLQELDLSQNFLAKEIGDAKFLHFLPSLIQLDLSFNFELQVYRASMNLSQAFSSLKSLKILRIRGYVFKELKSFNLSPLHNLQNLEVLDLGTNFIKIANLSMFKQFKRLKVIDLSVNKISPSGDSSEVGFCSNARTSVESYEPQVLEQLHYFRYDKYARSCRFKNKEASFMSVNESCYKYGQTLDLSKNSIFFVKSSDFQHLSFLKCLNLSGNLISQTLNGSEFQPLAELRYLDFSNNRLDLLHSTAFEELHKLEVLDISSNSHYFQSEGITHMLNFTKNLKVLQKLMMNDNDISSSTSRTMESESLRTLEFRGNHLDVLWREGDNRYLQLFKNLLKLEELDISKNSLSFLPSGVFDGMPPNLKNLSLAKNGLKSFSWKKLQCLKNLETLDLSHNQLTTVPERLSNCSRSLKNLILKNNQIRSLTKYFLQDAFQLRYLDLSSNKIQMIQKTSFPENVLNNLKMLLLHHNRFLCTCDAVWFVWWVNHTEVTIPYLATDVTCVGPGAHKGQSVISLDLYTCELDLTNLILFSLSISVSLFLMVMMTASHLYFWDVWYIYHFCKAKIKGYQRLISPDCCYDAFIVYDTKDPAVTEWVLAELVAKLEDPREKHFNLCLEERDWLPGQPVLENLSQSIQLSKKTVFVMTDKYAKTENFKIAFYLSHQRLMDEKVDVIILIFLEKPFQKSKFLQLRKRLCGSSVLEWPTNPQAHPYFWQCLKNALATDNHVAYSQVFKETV
Protocol: (§1) HEK-Blue™ cells that stably express human TLR7 or TLR8 are used to evaluate the agonistic activity of the compounds on TLR7 or TLR8, which is determined by the induction of the expression of SEAP reporter gene under the control of minimum IFN-β promoter fusion to 5×NF-κB and AP-1 binding sites. The assay is conducted as below:
(§2) HEK-Blue™ hTLR7 (Invivogen, 80,000 cells per well) or HEK-Blue™ hTLR8 (Invivogen, 60,000 cells per well) were added to the 96-well cell culture plate, followed by adding of the test compound. The final concentration of the test compound in the medium ranged from […], and was incubated for 16 to 22 hours. According to the manufacturer's instructions, the HEK-Blue assay reagent Quanti-blue (Invivogen) was used to measure SEAP levels in cell media. Optical density at 650 nm (OD650) was measured by Neo2 multifunction plate reader (Bio-tek). The half effective concentration (EC50) was calculated using GraphPad Prism.

[2] = target: T2, human TLR8 (Homo sapiens, UniProt Q9NR97); assay: HEK-Blue hTLR8 SEAP reporter gene agonist assay; type: cell-based; conditions: HEK-Blue hTLR8 cells, 16 to 22 hours incubation
T2 construct: host or cells: HEK-Blue hTLR8 (HEK293-derived reporter cells)
T2 sequence (Q9NR97 27-1041): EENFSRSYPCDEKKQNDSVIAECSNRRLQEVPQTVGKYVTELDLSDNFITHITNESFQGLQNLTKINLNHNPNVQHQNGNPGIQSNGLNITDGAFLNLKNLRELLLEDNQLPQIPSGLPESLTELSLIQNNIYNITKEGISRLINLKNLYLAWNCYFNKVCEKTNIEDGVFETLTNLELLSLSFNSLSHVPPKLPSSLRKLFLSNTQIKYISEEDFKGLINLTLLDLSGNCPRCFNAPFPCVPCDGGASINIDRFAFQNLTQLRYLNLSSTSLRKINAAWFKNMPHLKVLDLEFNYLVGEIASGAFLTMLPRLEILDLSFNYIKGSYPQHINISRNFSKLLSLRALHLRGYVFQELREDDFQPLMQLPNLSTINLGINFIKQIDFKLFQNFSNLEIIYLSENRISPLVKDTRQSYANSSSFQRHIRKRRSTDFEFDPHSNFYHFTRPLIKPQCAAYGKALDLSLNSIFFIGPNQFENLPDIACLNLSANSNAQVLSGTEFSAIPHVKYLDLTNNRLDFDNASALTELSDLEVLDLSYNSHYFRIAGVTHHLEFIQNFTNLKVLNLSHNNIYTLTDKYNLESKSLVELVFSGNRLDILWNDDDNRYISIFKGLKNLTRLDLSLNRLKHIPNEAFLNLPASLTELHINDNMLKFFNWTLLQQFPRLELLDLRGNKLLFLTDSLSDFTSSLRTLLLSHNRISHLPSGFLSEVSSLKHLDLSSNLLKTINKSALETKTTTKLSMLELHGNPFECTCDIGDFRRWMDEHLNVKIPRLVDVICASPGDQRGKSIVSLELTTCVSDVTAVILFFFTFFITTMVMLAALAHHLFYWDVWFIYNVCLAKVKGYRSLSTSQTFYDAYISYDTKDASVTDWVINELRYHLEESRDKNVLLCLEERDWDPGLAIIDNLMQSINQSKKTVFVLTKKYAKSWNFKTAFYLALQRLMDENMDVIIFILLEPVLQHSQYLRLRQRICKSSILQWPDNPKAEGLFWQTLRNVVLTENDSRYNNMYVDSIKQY
Protocol: as §1, §2

SMILES | EC50 [1] | EC50 [2]
CCC[C@@H](CCO)Nc1nc(N)nc2ccn(Cc3ccc(CN4CCCC4)cc3)c(=O)c12 [Compound I-118, (S)-2-amino-4-((1-hydroxyhexan-3-yl)amino)-6-(4-(pyrrolidin-1-ylmethyl)benzyl)pyrido[4,3-d]pyrimidin-5(6H)-one] | 40 nM | 52 nM
CCCCNc1nc(N)nc2ccn(Cc3ccc(C(=O)N4CCN(C)CC4)c(OC)c3)c(=O)c12 [Compound I-79, 2-amino-4-(butylamino)-6-(3-methoxy-4-(4-methylpiperazine-1-carbonyl)benzyl)pyrido[4,3-d]pyrimidin-5(6H)-one] | 87 nM | 105 nM
CCCCNc1nc(N)nc2ccn(Cc3ccc(CN(CCC)CCO)cc3)c(=O)c12 [Compound I-98, 2-amino-4-(butylamino)-6-(4-(((2-hydroxyethyl)(propyl)amino)methyl)benzyl)pyrido[4,3-d]pyrimidin-5(6H)-one] | 101 nM | 85 nM
CCCCNc1nc(N)nc2ccn(Cc3ccc(CN(C)C)cc3)c(=O)c12 [Compound I-35, 2-amino-4-(butylamino)-6-(4-((dimethylamino)methyl)benzyl)pyrido[4,3-d]pyrimidin-5(6H)-one] | 87 nM | 58 nM
CCCCNc1nc(N)nc2ccn(Cc3ccc(CN4CC5(COC5)C4)cc3)c(=O)c12 [Compound I-52, 6-(4-((2-oxa-6-azaspiro[3.3]heptan-6-yl)methyl)benzyl)-2-amino-4-(butylamino)pyri do[4,3-d]pyrimidin-5(6H)-one] | 83 nM | 56 nM
CCC[C@@H](C)Nc1nc(N)nc2ccn(Cc3ccc(CN4CCN(CCO)CC4)cc3)c(=O)c12 [Compound I-148, (R)-2-amino-6-(4-((4-(2-hydroxyethyl)piperazin-1-yl)methyl)benzyl)-4-(pentan-2-ylamino)pyrido[4,3-d]pyrimidin-5(6H)-one] | 40 nM | 40 nM
CCCCNc1nc(N)nc2ccn(Cc3ccc(C(=O)N4CCNCC4)cc3OC)c(=O)c12 [Compound I-72, 2-amino-4-(butylamino)-6-(2-methoxy-4-(piperazine-1-carbonyl)benzyl)pyrido[4,3-d]pyrimidin-5(6H1)-one] | 64 nM | 81 nM
CCC[C@@H](C)Nc1nc(N)nc2ccn(Cc3ccc(CN(C)CCO)cc3)c(=O)c12 [Compound I-139, (R)-2-amino-6-(4-(((2-hydroxyethyl)(methyl)amino)methyl)benzyl)-4-(pentan-2-ylamino)pyrido[4,3-d]pyrimidin-5(6H)-one] | 30 nM | 20 nM
CCCC(CCO)Nc1nc(N)nc2ccn(Cc3ccc(CN4CCCC4)cc3)c(=O)c12 (centres unmarked) [Compound I-95, 2-amino-4-((1-hydroxyhexan-3-yl)amino)-6-(4-(pyrrolidin-1-ylmethyl)benzyl)pyrido[4,3-d]pyrimidin-5(6H)-one] | 65 nM | 46 nM
CCCC(CCC)Nc1nc(N)nc2ccn(Cc3ccc(C(=O)N4CCNCC4)cc3OC)c(=O)c12 [Compound I-132, 2-amino-4-(heptan-4-ylamino)-6-(2-methoxy-4-(piperazine-1-carbonyl)benzyl)pyrido[4,3-d]pyrimidin-5(6H)-one] | 84 nM | 660 nM
CCCCNc1nc(N)nc2ccn(Cc3ccc(C(=O)N4CCN(C)CC4)cc3OC)c(=O)c12 [Compound I-73, 2-amino-4-(butylamino)-6-(2-methoxy-4-(4-methylpiperazine-1-carbonyl)benzyl)pyrido[4,3-d]pyrimidin-5(6H1)-one] | 41 nM | –

Results, then the molecule that gave them:

EC50 [1] | EC50 [2] | SMILES
30 nM | 70 nM | CCC[C@@H](COC)Nc1nc(N)nc2ccn(Cc3ccc(CN4CCCC4)cc3OC)c(=O)c12 [Compound I-163, (S)-2-amino-6-(2-methoxy-4-(pyrrolidin-1-ylmethyl)benzyl)-4-((1-methoxypentan-2-yl)amino)pyrido[4,3-d]pyrimidin-5(6H)-one]
40 nM | 10 nM | CCC[C@@H](CO)Nc1nc(N)nc2ccn(Cc3ccc(CN4CCCC4)cc3Cl)c(=O)c12 [Compound I-168, (S)-2-amino-6-(2-chloro-4-(pyrrolidin-1-ylmethyl)benzyl)-4-((1-hydroxypentan-2-yl)amino)pyrido[4,3-d]pyrimidin-5(6H)-one]
63 nM | 40 nM | CCC[C@@H](C)Nc1nc(N)nc2ccn(Cc3ccc(CN4CCN(CCCO)CC4)cc3OC)c(=O)c12 [Compound I-216, (R)-2-amino-6-(4-((4-(3-hydroxypropyl)piperazin-1-yl)methyl)-2-methoxybenzyl)-4-(pentan-2-ylamino)pyrido[4,3-d]pyrimidin-5(6H)-one]
40 nM | 30 nM | CCC[C@@H](C)Nc1nc(N)nc2ccn(Cc3ccc(CN4CC5(COC5)C4)cc3)c(=O)c12 [Compound I-150, (R)-6-(4-((2-oxa-6-azaspiro[3.3]heptan-6-yl)methyl)benzyl)-2-amino-4-(pentan-2-ylamino)pyrido[4,3-d]pyrimidin-5(6H)-one]
70 nM | 20 nM | CCC[C@@H](CO)Nc1nc(N)nc2ccn(Cc3ccc(CN4CCCC4)cc3C)c(=O)c12 [Compound I-169, (S)-2-amino-4-((1-hydroxypentan-2-yl)amino)-6-(2-methyl-4-(pyrrolidin-1-ylmethyl)benzyl)pyrido[4,3-d]pyrimidin-5(6H)-one]
110 nM | 40 nM | CCC[C@@H](C)Nc1nc(N)nc2ccn(Cc3ccc(C(=O)N4C5CNCC4C5)cc3)c(=O)c12 [Compound I-161, 6-(4-(3,6-diazabicyclo[3.1.1]heptane-6-carbonyl)benzyl)-2-amino-4-(((R)-pentan-2-yl)amino)pyrido[4,3-d]pyrimidin-5(6H)-one]
40 nM | 30 nM | CCCC[C@@H](CO)Nc1nc(N)nc2ccn(Cc3ccc(CN4CCCC4)cc3OC)c(=O)c12 [Compound I-164, (S)-2-amino-4-((1-hydroxyhexan-2-yl)amino)-6-(2-methoxy-4-(pyrrolidin-1-ylmethyl)benzyl)pyrido[4,3-d]pyrimidin-5(6H)-one]
